The term solubility denotes how much of the substance goes into solution per volume. A high value points to a readily soluble substance. A word on the bioavailability: it is the share of a dose that reaches the circulation, judged against a reference dose that is usually intravenous.

Here are results for two molecules from patent publication US11471456B2, “Formulations comprising heterocyclic protein kinase inhibitors” (Sumitomo Pharma Oncology, Inc., priority 2019, dated 2022).

Series [1] is described as follows: DVS (hygroscopicity) of free base and salts. The class given is physicochemical.
Series [2] can be described thus: Phase 1 first-in-human escalating dose study in patients with advanced solid tumors. The class given is in vivo. On the procedure:
The study is currently enrolling Cohort 3 at a dose level of 1080 mg qd.

A short description of series [3]: HPLC solubility in SGF, FaSSIF, FeSSIF at 37° C. Conditions: thermodynamic from solid. The class given is physicochemical. On the procedure: HPLC Method. The chromatographic conditions for HPLC are summarized below.
The samples were then centrifuged and filtered. Saturated solutions were diluted with MeOH:H2O=1:2 (v:v), and the concentrations were determined by HPLC. The final pH of the saturated solutions was tested.

Series [4] is described as follows: Oral bioavailability of the compound of structure (I) in rats with different excipients. The class given is in vivo. Particulars: for bioavailability: rat, in vivo, po.

Structures are written as SMILES. In brackets after ≈: the same amount, converted by molar mass. Like-named read-outs stand apart in the source and are kept apart here.

On to `CC(C)(O)C1CCC(Nc2ccc3ncc(-c4cccc(C(F)(F)F)c4)n3n2)CC1.Cl` [Hydrochloric acid salt, 2-((1R,4R)-4-((3-(3-(trifluoromethyl)phenyl)imidazo[1,2-b]pyridazin-6-yl)amino)cyclohexyl)propan-2-ol hydrochloride], for which, in series [1], the “DVS (weight gain, %)” value is reported as 2.83% and the “hygroscopicity by DVS compared with methanesulfonic acid salt” value is listed as “much lower hygroscopicity”.
In the case of `CC(C)(O)[C@H]1CC[C@H](Nc2ccc3ncc(-c4cccc(C(F)(F)F)c4)n3n2)CC1` [compound of structure (I), 2-((1R,4R)-4-((3-(3-(trifluoromethyl)phenyl)imidazo[1,2-b]pyridazin-6-yl)amino)cyclohexyl)propan-2-ol], the “DVS (weight gain, %)” value in series [1] is given as 1.60%. Also, the “hygroscopicity by DVS compared with methanesulfonic acid salt” value in series [1] is “much lower hygroscopicity”. Besides, in series [2] (480 mg qd and 720 mg qd cohorts (3 patients each), first cycle, preliminary data), the “changes in hematological parameters including platelets, WBC counts and hemoglobin” value is on record as “no marked changes in hematological parameters”. The “side effects, regardless of causality, occurring with a frequency equal to 2 or greater” value in series [2] (480 mg qd and 720 mg qd cohorts, preliminary data) is “diarrhea, nausea and vomiting”. Further, the “severity of the side effect events” value in series [2] (all Grade 1, except one event that was Grade 2) is listed as “mild in severity”. Moreover, the solubility at 0.5 h was 1360 µg/mL (≈ 3250 µM) in series [3] (simulated gastric fluid, SGF); 10.4 µg/mL (≈ 24.9 µM) in series [3] (FaSSIF); 96.8 µg/mL (≈ 231 µM) in series [3] (FeSSIF). Besides, the solubility at 2 h in series [3] (simulated gastric fluid, SGF) is 1270 µg/mL (≈ 3030 µM); in series [3] (FaSSIF), 9.81 µg/mL (≈ 23.4 µM). For the same molecule, the solubility at 24 h in series [3] (simulated gastric fluid, SGF) was 903 µg/mL (≈ 2160 µM); in series [3] (FaSSIF), 7.91 µg/mL (≈ 18.9 µM); in series [3] (FeSSIF) it was 91.5 µg/mL (≈ 219 µM). The “Oral Bioavailability (% F)” value in series [4] (Dry Powder (capsule), administered alone) is reported as “poor bioavailability”. The bioavailability in series [4] (Dry Powder (capsule), administered alone, read-out: Oral Bioavailability (% F)) came out at 0%; in series [4] (excipient 10% EtOH/10% PEG300/20% HS15, read-out: Oral Bioavailability (% F)) it was 38%; in series [4] (excipient 10% EtOH/40% PG, read-out: Oral Bioavailability (% F)), 2%; in series [4] (excipient 10% PS-20, read-out: Oral Bioavailability (% F)) it was 39%; in series [4] (excipient 10% PS-20/50% PEG400, read-out: Oral Bioavailability (% F)) it was 15%; in series [4] (excipient Corn Oil, read-out: Oral Bioavailability (% F)) it was 0%. The bioavailability in series [4] (excipient HPβCD, read-out: Oral Bioavailability (% F)) came to 11%.
